According to the NIST ThermoML archive (doi:10.1007/s10765-010-0860-3):
Numbers after ± are expanded uncertainties.

How the values were obtained:
[1] = 101 kPa, Liquid; for viscosity: Capillary tube (Ostwald / Ubbelohde) method; for mass density: Pycnometric method
[2] = xn = mol fraction of the nth substance listed; conditions: 101 kPa, Liquid; for viscosity: Capillary tube (Ostwald / Ubbelohde) method; for mass density: Pycnometric method

SMILES	viscosity ([1]; 288.15 K) [mPa·s]	mass density ([1]; 288.15 K) [kg/m3]	viscosity ([1]; 298.15 K) [mPa·s]	mass density ([1]; 298.15 K) [kg/m3]	viscosity ([1]; 308.15 K) [mPa·s]	mass density ([1]; 308.15 K) [kg/m3]	further results
C1CCOC1 [tetrahydrofuran]	0.508 ± 0.005	892.93 ± 0.86	0.462 ± 0.004	881.96 ± 0.86	0.426 ± 0.004	870.85 ± 0.87	–
CC1COC(=O)O1 (configuration not stated) [4-methyl-1,3-dioxolan-2-one]	3.086 ± 0.025	1208.67 ± 0.99	2.5 ± 0.021	1197.58 ± 0.96	2.073 ± 0.017	1187.16 ± 0.95	–
CC1COC(=O)O1 (configuration not stated) [4-methyl-1,3-dioxolan-2-one] + CC(=O)CC(C)=O	–	–	–	–	–	–	viscosity ([2]; 288.15 K, x1 = 1): 3.086 ± 0.025 mPa·s; mass density ([2]; 288.15 K, x1 = 1): 1208.67 ± 0.99 kg/m3; viscosity ([2]; 298.15 K, x1 = 1): 2.5 ± 0.021 mPa·s; mass density ([2]; 298.15 K, x1 = 1): 1197.58 ± 0.96 kg/m3; viscosity ([2]; 308.15 K, x1 = 1): 2.073 ± 0.017 mPa·s; mass density ([2]; 308.15 K, x1 = 1): 1187.16 ± 0.95 kg/m3
C1CCOC1 [tetrahydrofuran] + CC1COC(=O)O1	–	–	–	–	–	–	viscosity ([2]; 288.15 K, x2 = 0): 0.508 ± 0.005 mPa·s; mass density ([2]; 288.15 K, x2 = 0): 892.93 ± 0.86 kg/m3; viscosity ([2]; 298.15 K, x2 = 0): 0.462 ± 0.004 mPa·s; mass density ([2]; 298.15 K, x2 = 0): 881.96 ± 0.86 kg/m3; viscosity ([2]; 308.15 K, x2 = 0): 0.426 ± 0.004 mPa·s; mass density ([2]; 308.15 K, x2 = 0): 870.85 ± 0.87 kg/m3
CC(=O)CC(C)=O [2,4-pentanedione]	0.741 ± 0.006	980.34 ± 0.72	0.67 ± 0.006	972.18 ± 0.73	0.609 ± 0.005	963.46 ± 0.76	–
C1COCCO1 [1,4-dioxane]	1.44 ± 0.012	1039.1 ± 0.92	1.185 ± 0.01	1027.92 ± 0.92	1.029 ± 0.009	1016.55 ± 0.93	–
C1COCCO1 [1,4-dioxane] + CC1COC(=O)O1	–	–	–	–	–	–	viscosity ([2]; 288.15 K, x2 = 0): 1.44 ± 0.012 mPa·s; mass density ([2]; 288.15 K, x2 = 0): 1039.1 ± 0.92 kg/m3; viscosity ([2]; 298.15 K, x2 = 0): 1.185 ± 0.01 mPa·s; mass density ([2]; 298.15 K, x2 = 0): 1027.92 ± 0.92 kg/m3; viscosity ([2]; 308.15 K, x2 = 0): 1.029 ± 0.009 mPa·s; mass density ([2]; 308.15 K, x2 = 0): 1016.55 ± 0.93 kg/m3
